Assay in all cases: Cysteine liganding, probe competition
What all share (format): binding

For assay [1], the target named is T1, BIRC2 Baculoviral IAP repeat-containing protein 2 (Homo sapiens, UniProt Q13490).
T1 construct: Cells were resuspended in cold PBS on ice and sonicated with a probe sonicator to achieve lysis; endogenous in cells
The note with it: for Liganded: BIRC2 Res# 45, uniprot Q13490. The method, boiled down:
(§1)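 Lysates from probe-sonicated cells in PBS (5 mg/ml proteome) were exposed to compound for 1 hr at 25° C, then labelled with desthiobiotin iodoacetamide probe (10 mM stock) for 1 hr at 25° C. Probe-tagged peptides were streptavidin-enriched after trypsin digestion.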

Assay [2] addresses T2, CDK16 Cyclin-dependent kinase 16 (Homo sapiens, UniProt Q00536).
T2 construct: 200 μL of lysate containing 5 mg/ml proteome was treated with 2 μL of 100× compound stock; endogenous in cells
Particulars: for Liganded: CDK16 Res# 206, uniprot Q00536. In a few lines: as §1

The next assay has as its target T3, TAPBP Tapasin (Homo sapiens, UniProt O15533).
T3 construct: Cells were resuspended in cold PBS on ice and sonicated with a probe sonicator to achieve lysis; endogenous in cells
T3 sequence (O15533 21-448): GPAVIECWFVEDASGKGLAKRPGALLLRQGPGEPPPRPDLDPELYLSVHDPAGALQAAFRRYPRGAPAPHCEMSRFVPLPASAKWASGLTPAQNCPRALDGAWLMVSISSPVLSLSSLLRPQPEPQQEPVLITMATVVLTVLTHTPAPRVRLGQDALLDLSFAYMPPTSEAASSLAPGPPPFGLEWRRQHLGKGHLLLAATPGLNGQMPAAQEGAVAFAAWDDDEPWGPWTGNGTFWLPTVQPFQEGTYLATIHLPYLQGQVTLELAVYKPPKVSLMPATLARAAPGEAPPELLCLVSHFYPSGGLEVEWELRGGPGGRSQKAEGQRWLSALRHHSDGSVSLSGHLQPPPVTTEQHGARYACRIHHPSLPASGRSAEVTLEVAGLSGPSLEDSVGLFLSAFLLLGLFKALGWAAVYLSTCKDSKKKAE
The method, boiled down: as §1

Assay [3] has as its target T4, TRIM65 Tripartite motif-containing protein 65 (Homo sapiens, UniProt Q6PJ69).
T4 construct: Cells were resuspended in cold PBS on ice and sonicated with a probe sonicator to achieve lysis; endogenous in cells
T4 sequence (Q6PJ69 1-517): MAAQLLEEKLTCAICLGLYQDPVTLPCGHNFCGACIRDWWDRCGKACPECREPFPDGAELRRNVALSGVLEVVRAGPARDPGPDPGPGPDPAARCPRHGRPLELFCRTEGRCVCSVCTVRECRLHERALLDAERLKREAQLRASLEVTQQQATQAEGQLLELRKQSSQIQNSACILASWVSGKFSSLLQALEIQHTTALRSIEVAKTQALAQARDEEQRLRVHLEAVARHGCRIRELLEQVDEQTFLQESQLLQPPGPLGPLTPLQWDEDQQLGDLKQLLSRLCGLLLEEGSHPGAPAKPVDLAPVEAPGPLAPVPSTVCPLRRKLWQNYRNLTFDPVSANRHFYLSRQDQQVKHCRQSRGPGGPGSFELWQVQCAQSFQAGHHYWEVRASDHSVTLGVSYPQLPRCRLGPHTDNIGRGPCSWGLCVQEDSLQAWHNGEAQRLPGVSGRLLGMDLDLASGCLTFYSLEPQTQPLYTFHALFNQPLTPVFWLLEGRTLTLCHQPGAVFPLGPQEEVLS
In a few lines: as §1

The target of assay [4] is T5, TUBA3D Tubulin alpha-3C/D chain (Homo sapiens, UniProt P0DPH8).
T5 construct: Cells were resuspended in cold PBS on ice and sonicated with a probe sonicator to achieve lysis; endogenous in cells
In a few lines: as §1

Assay [5] concerns the target T6, ZNF318 Zinc finger protein 318 (Homo sapiens, UniProt Q5VUA4).
T6 construct: Cells were resuspended in cold PBS on ice and sonicated with a probe sonicator to achieve lysis; endogenous in cells
The method, boiled down:
as §1

The values below come from patent US20200239530A1, “COMPOUNDS AND METHODS OF MODULATING PROTEIN DEGRADATION” (Vividion Therapeutics, Inc., priority 2017, published 2020).

T6 sequence (Q5VUA4 whole entry): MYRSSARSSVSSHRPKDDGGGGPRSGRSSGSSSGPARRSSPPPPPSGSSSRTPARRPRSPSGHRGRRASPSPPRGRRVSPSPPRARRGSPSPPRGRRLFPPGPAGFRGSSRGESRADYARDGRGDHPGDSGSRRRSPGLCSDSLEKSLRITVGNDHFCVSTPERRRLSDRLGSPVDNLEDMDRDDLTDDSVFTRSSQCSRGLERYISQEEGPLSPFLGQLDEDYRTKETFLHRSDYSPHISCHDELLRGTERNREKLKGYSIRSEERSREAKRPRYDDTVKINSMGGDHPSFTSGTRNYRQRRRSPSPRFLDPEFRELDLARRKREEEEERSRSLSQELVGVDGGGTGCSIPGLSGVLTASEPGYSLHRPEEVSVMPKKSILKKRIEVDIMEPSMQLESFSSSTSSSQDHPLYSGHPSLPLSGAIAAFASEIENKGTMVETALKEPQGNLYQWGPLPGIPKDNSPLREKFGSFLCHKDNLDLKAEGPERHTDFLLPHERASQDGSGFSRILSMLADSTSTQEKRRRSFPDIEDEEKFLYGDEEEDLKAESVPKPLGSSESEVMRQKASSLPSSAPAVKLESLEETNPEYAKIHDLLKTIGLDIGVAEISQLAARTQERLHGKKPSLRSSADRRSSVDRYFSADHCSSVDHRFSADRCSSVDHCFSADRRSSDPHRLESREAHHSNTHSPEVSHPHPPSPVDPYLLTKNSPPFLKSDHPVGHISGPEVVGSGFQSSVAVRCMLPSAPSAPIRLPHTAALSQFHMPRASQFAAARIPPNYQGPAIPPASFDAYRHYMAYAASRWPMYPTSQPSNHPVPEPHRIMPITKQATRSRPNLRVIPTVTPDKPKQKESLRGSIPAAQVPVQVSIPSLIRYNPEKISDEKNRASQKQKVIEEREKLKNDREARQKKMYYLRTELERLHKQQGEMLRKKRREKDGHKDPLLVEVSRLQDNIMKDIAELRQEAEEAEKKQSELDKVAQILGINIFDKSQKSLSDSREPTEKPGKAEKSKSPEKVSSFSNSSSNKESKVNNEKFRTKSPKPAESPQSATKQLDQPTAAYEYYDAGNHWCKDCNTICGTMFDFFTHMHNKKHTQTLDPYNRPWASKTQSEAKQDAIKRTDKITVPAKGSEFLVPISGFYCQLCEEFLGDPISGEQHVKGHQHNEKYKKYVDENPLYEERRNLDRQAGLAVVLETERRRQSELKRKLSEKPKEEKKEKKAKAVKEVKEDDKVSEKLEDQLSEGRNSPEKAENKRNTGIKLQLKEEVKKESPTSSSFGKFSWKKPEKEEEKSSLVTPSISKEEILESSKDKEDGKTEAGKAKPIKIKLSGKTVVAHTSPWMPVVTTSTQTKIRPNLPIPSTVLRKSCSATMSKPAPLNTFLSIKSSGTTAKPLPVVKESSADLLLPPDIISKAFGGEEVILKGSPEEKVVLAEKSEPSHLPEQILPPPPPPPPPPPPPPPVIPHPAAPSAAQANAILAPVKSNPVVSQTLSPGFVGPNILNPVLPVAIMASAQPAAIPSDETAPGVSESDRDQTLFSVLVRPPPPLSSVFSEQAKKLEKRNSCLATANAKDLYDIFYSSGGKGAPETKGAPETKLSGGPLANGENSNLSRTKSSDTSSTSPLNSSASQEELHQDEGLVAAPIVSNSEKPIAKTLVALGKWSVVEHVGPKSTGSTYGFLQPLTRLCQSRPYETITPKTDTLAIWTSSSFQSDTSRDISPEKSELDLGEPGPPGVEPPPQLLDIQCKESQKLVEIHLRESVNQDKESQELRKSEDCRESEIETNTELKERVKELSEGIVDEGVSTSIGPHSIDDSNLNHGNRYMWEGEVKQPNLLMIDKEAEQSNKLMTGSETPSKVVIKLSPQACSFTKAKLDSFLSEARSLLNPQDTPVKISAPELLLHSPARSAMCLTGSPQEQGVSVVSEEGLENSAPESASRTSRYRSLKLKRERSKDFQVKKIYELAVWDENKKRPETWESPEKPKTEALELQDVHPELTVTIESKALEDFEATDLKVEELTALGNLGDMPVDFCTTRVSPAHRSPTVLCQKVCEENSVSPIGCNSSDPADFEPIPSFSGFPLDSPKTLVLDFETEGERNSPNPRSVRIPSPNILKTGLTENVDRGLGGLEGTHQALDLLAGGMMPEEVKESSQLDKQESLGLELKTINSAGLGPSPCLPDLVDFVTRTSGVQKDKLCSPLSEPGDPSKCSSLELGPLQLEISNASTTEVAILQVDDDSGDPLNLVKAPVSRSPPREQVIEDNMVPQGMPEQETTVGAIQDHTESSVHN
T5 sequence (P0DPH8 whole entry, looked up): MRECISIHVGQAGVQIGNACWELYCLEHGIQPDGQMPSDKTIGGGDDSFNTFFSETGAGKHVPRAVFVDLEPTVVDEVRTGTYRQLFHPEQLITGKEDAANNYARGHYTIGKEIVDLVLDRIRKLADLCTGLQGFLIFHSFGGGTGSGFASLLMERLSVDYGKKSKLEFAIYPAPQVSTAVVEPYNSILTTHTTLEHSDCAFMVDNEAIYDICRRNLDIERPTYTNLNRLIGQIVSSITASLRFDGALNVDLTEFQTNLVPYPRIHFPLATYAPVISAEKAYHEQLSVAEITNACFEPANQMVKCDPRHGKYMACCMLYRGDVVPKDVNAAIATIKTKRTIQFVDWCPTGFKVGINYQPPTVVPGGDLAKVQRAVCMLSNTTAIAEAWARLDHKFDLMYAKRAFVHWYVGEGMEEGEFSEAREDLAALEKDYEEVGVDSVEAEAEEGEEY
T1 sequence (Q13490 whole entry): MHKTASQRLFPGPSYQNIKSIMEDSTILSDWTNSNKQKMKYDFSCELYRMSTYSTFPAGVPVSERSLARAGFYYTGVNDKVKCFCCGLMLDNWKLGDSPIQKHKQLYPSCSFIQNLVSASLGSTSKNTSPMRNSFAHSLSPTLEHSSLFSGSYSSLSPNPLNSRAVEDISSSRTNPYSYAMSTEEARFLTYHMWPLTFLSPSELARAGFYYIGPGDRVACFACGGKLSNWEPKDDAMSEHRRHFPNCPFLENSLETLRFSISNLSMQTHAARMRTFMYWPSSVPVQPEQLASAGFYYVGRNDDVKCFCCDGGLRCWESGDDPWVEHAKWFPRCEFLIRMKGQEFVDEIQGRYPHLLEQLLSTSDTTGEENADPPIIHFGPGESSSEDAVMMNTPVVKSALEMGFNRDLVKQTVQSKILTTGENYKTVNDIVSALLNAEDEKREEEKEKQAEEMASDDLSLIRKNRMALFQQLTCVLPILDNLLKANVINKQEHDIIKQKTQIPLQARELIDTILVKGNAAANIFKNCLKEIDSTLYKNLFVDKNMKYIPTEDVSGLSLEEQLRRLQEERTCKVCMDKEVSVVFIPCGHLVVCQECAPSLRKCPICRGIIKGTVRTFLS
T2 sequence (Q00536 whole entry): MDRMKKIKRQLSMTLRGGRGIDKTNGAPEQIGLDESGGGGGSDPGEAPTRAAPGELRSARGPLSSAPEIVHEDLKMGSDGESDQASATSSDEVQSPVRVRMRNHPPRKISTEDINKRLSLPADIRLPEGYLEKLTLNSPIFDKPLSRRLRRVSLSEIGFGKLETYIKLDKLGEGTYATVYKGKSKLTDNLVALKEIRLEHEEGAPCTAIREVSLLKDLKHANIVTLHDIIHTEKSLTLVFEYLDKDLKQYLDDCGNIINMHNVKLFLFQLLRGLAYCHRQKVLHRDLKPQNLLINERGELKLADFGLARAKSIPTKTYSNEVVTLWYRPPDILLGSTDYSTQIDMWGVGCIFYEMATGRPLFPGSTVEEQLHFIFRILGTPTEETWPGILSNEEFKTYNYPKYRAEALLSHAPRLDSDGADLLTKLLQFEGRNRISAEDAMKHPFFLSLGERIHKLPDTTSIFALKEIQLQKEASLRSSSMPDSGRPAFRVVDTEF

Turning to `COc1ccc2c(c1)CCCN2C(=O)CCl` [KB02], the Liganded result in assay [1] was “YES”; in assay [2], “YES”; on TAPBP Tapasin (TAPBP Res# 440, uniprot O15533), “YES”; in assay [3] (TRIM65 Res# 320, uniprot Q6PJ69), “YES”; in assay [4] (TUBA3D Res# 4, uniprot Q13748) it was “YES”; in assay [4] (TUBA3D Res# 20, uniprot Q13748), “YES”. In assay [5] (ZNF318 Res# 1681, uniprot Q5VUA4), the Liganded result is given as “YES”.
As for `O=C(CCl)Nc1cc(C(F)(F)F)cc(C(F)(F)F)c1` [KBO3], the Liganded entry in assay [1] is “YES”; in assay [2], “YES”; in assay [4] (TUBA3D Res# 4, uniprot Q13748) it was “YES”; in assay [4] (TUBA3D Res# 20, uniprot Q13748), “YES”. Also, the “100 Max” value in assay [1] (uniprot Q13490) is on record as 47.9; in assay [2] (uniprot Q00536), 50.67; at TAPBP Tapasin (uniprot O15533), 31.4264; in assay [3] (uniprot Q6PJ69) it was 35.1; in assay [5] (uniprot Q5VUA4) it was −1.63. Besides, the 100 ave is 41.4 in assay [1] (uniprot Q13490); 28.2075 in assay [2] (uniprot Q00536); 28.54 on TAPBP Tapasin (uniprot O15533); 19.4 in assay [3] (uniprot Q6PJ69); −8.115 in assay [5] (uniprot Q5VUA4). For the same compound, the “500 Max” value in assay [1] (uniprot Q13490) came out at 92.0; in assay [2] (uniprot Q00536, in % (unit assumed)), 80.44; on TAPBP Tapasin (uniprot O15533) it was 68.7451; in assay [3] (uniprot Q6PJ69) it was 70.9; in assay [5] (uniprot Q5VUA4), 55.07. The 500 ave in assay [1] (uniprot Q13490) was found to be 85.9; in assay [2] (uniprot Q00536), 79.225; at TAPBP Tapasin (uniprot O15533), 68.7451; in assay [3] (uniprot Q6PJ69), 60.2; in assay [5] (uniprot Q5VUA4) it was 40.555.
